Experimental data as given in patent US9650339B2, “Inhibitors of histone demethylases” (Gilead Sciences, Inc., priority 2013, dated 2017).

Target: T1, KDM2B (FBXL10) (Homo sapiens, UniProt Q8NHM5)
T1 sequence (Q8NHM5 1-650): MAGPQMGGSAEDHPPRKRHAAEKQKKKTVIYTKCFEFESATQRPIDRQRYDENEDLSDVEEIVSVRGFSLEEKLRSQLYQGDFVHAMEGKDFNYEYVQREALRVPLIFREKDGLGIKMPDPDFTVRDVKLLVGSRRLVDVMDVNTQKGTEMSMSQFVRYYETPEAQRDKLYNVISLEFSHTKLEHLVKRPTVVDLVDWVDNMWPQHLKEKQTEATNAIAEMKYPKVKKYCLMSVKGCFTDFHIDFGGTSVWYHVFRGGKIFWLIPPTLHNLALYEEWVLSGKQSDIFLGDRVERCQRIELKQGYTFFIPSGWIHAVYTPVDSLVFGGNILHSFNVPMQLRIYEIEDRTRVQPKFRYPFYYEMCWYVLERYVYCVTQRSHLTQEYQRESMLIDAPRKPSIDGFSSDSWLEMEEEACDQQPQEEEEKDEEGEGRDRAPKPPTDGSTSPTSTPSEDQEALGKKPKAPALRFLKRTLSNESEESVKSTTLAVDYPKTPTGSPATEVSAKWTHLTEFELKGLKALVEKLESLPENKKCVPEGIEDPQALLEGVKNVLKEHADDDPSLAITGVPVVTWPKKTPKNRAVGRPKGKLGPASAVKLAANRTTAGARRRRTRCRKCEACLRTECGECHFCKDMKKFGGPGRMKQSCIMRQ
Assay: Histone lysine demethylase AlphaLISA assay, KDM2B
Type: biochemical
Conditions: read-out: KDM2B HDME Inhibition IC50
Method in brief: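 Enzyme 10 min pre-incubation; + compound (3% DMSO soln) 10 min; + biotin-H3 methyl-Lys peptide, 25 μM L-Asc, 10 μM α-KG, RT. Read: AlphaLISA acceptor beads, then streptavidin donor beads, RT, dark.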

SMILES: CN(C)CCCCNCc1cc(CNC2CC2)ccn1 [Compound 10, N-{[2-({[4-(dimethylamino)butyl]-amino}methyl)pyridin-4-yl]methyl}-cyclopropanamine]
- IC50: > 2500 nM

SMILES: CC1CCCCN1CCCNCc1cc(CNC2CC2)ccn1 (stereo not shown) [Compound 11, N-{[2-({[3-(2-methylpiperidin-1-yl)propyl]amino}methyl)-pyridin-4-yl]methyl}-cyclopropanamine]
- IC50: > 2500 nM

SMILES: CCCNCc1cc(CNC2CC2)ccn1 [Compound 12, N-({2-[(propylamino)methyl]-pyridin-4-yl}methyl)-cyclopropanamine]
- IC50: > 2500 nM

SMILES: CN(C)C(=O)CNCc1cc(CNCCF)ccn1 [Compound 14, 2-{[(4-{[(2-fluoroethyl)amino]-methyl}pyridin-2-yl)methyl]amino}-N,N-dimethylacetamide]
- IC50: > 2500 nM

SMILES: CN(C)CCNCc1ccnc(CNCC(=O)N(C)C)c1 [Compound 15, 2-({[4-({[2-(dimethylamino)ethyl]-amino}methyl)pyridin-2-yl]methyl}amino)-N,N-dimethylacetamide]
- IC50: > 2500 nM

SMILES: c1ccc(CN2CCC[C@H]2CNCc2cc(CNCC3CC3)ccn2)cc1 [Compound 16, {[(2S)-1-benzylpyrrolidin-2-yl]methyl}[(4-{[(cyclopropylmethyl)-amino]methyl}pyridin-2-yl)methyl]amine]
- IC50: > 2500 nM

SMILES: CNCc1ccnc(CNCCCN(C)Cc2ccccc2)c1 [Compound 17, benzyl(methyl){3-[({4-[(methylamino)methyl]-pyridin-2-yl)methyl)-amino]propyl}-amine]
- IC50: > 2500 nM

SMILES: CN(C)CCNCc1cc(CNC(C#N)C2CC2)ccn1 (stereo not shown) [Compound 21, 2-cyclopropyl-2-({[2-({[2-(dimethylamino)ethyl]-amino}methyl)pyridin-4-yl]methyl}amino)-acetonitrile]
- IC50: > 2500 nM

SMILES: CC1CC1/N=C/c1ccnc(CNCC(=O)N(C)C)c1 (stereo not shown) [Compound 35, N,N-dimethyl-2-[({4-[N-(2-methylcyclopropyl)-carboximidoyl]pyridin-2-yl}methyl)amino]-acetamide]
- IC50: 250 to 2500 nM

SMILES: CCSCCNCc1cc(/C=N/C2CC2)ccn1 [Compound 39, N-{[2-({[2-(ethylsulfanyl)-ethyl]amino}methyl)pyridin-4-yl]methylidene}-cyclopropanamine]
- IC50: 250 to 2500 nM

SMILES: CN(CCCNCc1cc(/C=N/C2CC2)ccn1)Cc1ccccc1 [Compound 41, N-({2-[({3-[benzyl(methyl)amino]-propyl}amino)methyl]-pyridin-4-yl}methylidene)-cyclopropanamine]
- IC50: > 2500 nM

SMILES: CN(C)CCCCNCc1cc(/C=N\C2CC2)ccn1 [Compound 45, N-{[2-({[4-(dimethylamino)butyl]-amino}methyl)-pyridin-4-yl]methylidene}-cyclopropanamine]
- IC50: > 2500 nM

SMILES: CN(C)CCCCCNCc1cc(/C=N/C2CC2)ccn1 [Compound 47, N-{[2-({[5-(dimethylamino)-pentyl]amino}-methyl)pyridin-4-yl]methylidene}-cyclopropanamine]
- IC50: > 2500 nM

SMILES: CCN(CC)CCCCNC(=O)CNCc1cc(/C=N/C2CC2)ccn1 [Compound 48, 2-[({4-[N-cyclopropyl-carboximidoyl]pyridin-2-yl}methyl)amino]-N-[4-(diethylamino)-butyl]acetamide]
- IC50: > 2500 nM

SMILES: O=C(CNCc1cc(/C=N/C2CC2)ccn1)N1CCC[C@@H]1CN1CCCC1 [Compound 49, 2-[({4-[N-cyclopropyl-carboximidoyl]pyridin-2-yl}methyl)amino]-1-[(2R)-2-(pyrrolidin-1-ylmethyl)pyrrolidin-1-yl]ethan-1-one]
- IC50: > 2500 nM

SMILES: CCN(CCC#N)C(=O)CNCc1cc(/C=N/C2CC2)ccn1 [Compound 50, N-(2-cyanoethyl)-2-[({4-[N-cyclopropyl-carboximidoyl]-pyridin-2-yl}methyl)amino]-N-ethylacetamide]
- IC50: 250 to 2500 nM

SMILES: CCN1CCCC1CNC(=O)CNCc1cc(/C=N/C2CC2)ccn1 (stereo not shown) [Compound 51, 2-[({4-[N-cyclopropyl-carboximidoyl]-pyridin-2-yl}methyl)-amino]-N-[(1-ethylpyrrolidin-2-yl)methyl]acetamide]
- IC50: > 2500 nM

SMILES: CN(CCCn1cccn1)C(=O)CNCc1cc(/C=N/C2CC2)ccn1 [Compound 52, 2-[({4-[N-cyclopropyl-carboximidoyl]-pyridin-2-yl}methyl)amino]-N-methyl-N-[3-(1H-pyrazol-1-yl)propyl]acetamide]
- IC50: 250 to 2500 nM

SMILES: O=C(CNCc1cc(/C=N/C2CC2)ccn1)NC1CCN(Cc2ccccc2)C1 (stereo not shown) [Compound 53, N-(1-benzylpyrrolidin-3-yl)-2-[({4-[N-cyclopropyl-carboximidoyl]pyridin-2-yl}methyl)amino]-acetamide]
- IC50: 250 to 2500 nM

SMILES: CN1CCN(C(=O)CNCc2cc(/C=N/C3CC3)ccn2)CC1 [Compound 54, 2-[({4-[N-cyclopropyl-carboximidoyl]-pyridin-2-yl}methyl)amino]-1-(4-methylpiperazin-1-yl)ethan-1-one]
- IC50: > 2500 nM

SMILES: O=C(CNCc1cc(/C=N/C2CC2)ccn1)N1CCC(Cc2ccccc2)CC1 [Compound 55, 1-(4-benzylpiperidin-1-yl)-2-[({4-[N-cyclopropyl-carboximidoyl]-pyridin-2-yl}methyl)amino]-ethan-1-one]
- IC50: > 2500 nM

SMILES: C#CCN(C)C(=O)CNCc1cc(/C=N/C2CC2)ccn1 [Compound 56, 2-[({4-[N-cyclopropyl-carboximidoyl]-pyridin-2-yl}methyl)amino]-N-methyl-N-(prop-2-yn-1-yl)acetamide]
- IC50: > 2500 nM

SMILES: CN1CCN(C(=O)CNCc2cc(C=O)ccn2)CC1 [Compound 103, 2-({[2-(4-methylpiperazin-1-yl)-2-oxoethyl]-amino}methyl)-pyridine-4-carbaldehyde]
- IC50: > 2500 nM

SMILES: CCN1CCCC1CNC(=O)CNCc1cc(C=O)ccn1 (stereo not shown) [Compound 104, N-[(1-ethylpyrrolidin-2-yl)methyl]-2-{[(4-formylpyridin-2-yl)methyl]amino}-acetamide]
- IC50: > 2500 nM

SMILES: CCN(CC)C(=O)CNCc1cc(C=O)ccn1 [Compound 105, N,N-diethyl-2-{[(4-formylpyridin-2-yl)methyl]amino}-acetamide]
- IC50: > 2500 nM

SMILES: O=Cc1ccnc(CNCC(=O)N2CCC(Cc3ccccc3)CC2)c1 [Compound 106, 2-({[2-(4-benzylpiperidin-1-yl)-2-oxoethyl]-amino}methyl)-pyridine-4-carbaldehyde]
- IC50: > 2500 nM

SMILES: CN(C)CCCCNCc1cc(C=O)ccn1 [Compound 108, 2-({[4-(dimethylamino)-butyl]amino}methyl)-pyridine-4-carbaldehyde]
- IC50: > 2500 nM

SMILES: CN(C)CCNCc1cc(C=O)ccn1 [Compound 110, 2-({[2-(dimethylamino)-ethyl]amino}methyl)-pyridine-4-carbaldehyde]
- IC50: > 2500 nM

SMILES: CCN(CC)CCCCNC(=O)CNCc1cc(C=O)ccn1 [Compound 112, N-[4-(diethylamino)-butyl]-2-{[(4-formylpyridin-2-yl)methyl]amino}-acetamide]
- IC50: > 2500 nM

SMILES: CN(C)CCCCCNCc1cc(C=O)ccn1 [Compound 114, 2-({[5-(dimethylamino)-pentyl]amino}methyl)-pyridine-4-carbaldehyde]
- IC50: > 2500 nM

SMILES: CN(CC(=O)N1CCCCC1)Cc1cc(C=O)ccn1 [Compound 120, 2-({methyl[2-oxo-2-(piperidin-1-yl)ethyl]amino}-methyl)pyridine-4-carbaldehyde]
- IC50: > 2500 nM
